The source made the active and inactive calls. No cut-off for these calls is given here.
Test: Inhibition of tubulin polymerization

IC50 [µM] | inhibition | SMILES
100 | – | CCCCCc1c2c(cc(O)c1C(=O)O)OC(=O)c1c(cc(OC)cc1C(=O)CCCC)O2 [LOBARIC ACID]
– | inactive | CCCCCc1c(C)c(O)cc(O)c1Oc1cc(OC)cc2c1C(=O)OC2CCCC (stereo not drawn)
– | inactive | CCCCCc1cc(O)cc(O)c1Oc1cc(OC)cc2c1C(=O)OC2(O)CCCC (stereo not drawn)
